In patent publication US20050113450A1, “Antibacterial agents” (priority 2002, published 2005):
In brackets after ≈: the same amount, converted by molar mass.

tested on: SA 9218; experiment: MIC by standard agar dilution method; format: cell-based; conditions: Mueller Hinton agar, 10^4 to 10^5 cells per spot, incubated overnight at 35° C., lowest concentration that inhibits visible growth
In short: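 MIC read after overnight 35 °C incubation as lowest drug level preventing visible growth. Inoculum of roughly 10^4–10^5 cells per spot (0.5 McFarland, 1:20 in TSB) applied to Mueller Hinton agar containing serial 2-fold compound dilutions.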

Row | MIC [mg/L] | SA 9218 MIC [mg/L] | SMILES
1 | 1 (≈ 2.66 µM) |  | N#Cc1ccc(NC(=O)c2cccc(Oc3cccc(F)c3)c2)c(C(=O)O)c1 [PHA-562731]
2 | 0.25 (≈ 0.671 µM) |  | Cc1ccccc1Oc1cccc(C(=O)Nc2ccc(C#N)cc2C(=O)O)c1 [PHA-562733]
3 | 0.25 (≈ 0.519 µM) |  | N#Cc1ccc(NC(=O)c2ccc3c(c2)S(=O)(=O)N(c2ccc(Cl)cc2)CC3)c(C(=O)O)c1 [PHA-562745]
4 | 4 (≈ 8.63 µM) |  | C[C@H](c1ccccc1)N(C)S(=O)(=O)c1cccc(C(=O)Nc2ccc(C#N)cc2C(=O)O)c1 [PHA-562862]
5 | 2 (≈ 4.31 µM) |  | C[C@@H](c1ccccc1)N(C)S(=O)(=O)c1cccc(C(=O)Nc2ccc(C#N)cc2C(=O)O)c1 [PHA-562863]
6 | 2 (≈ 3.52 µM) |  | O=C(Nc1ccc(-c2ccc(Cl)cc2)cc1C(=O)O)c1cccc(S(=O)(=O)N2CCc3cc(Cl)ccc32)c1 [PHA-563274]
7 | 2 (≈ 3.46 µM) |  | O=C(Nc1ccc(-c2cccc([N+](=O)[O-])c2)cc1C(=O)O)c1cccc(S(=O)(=O)N2CCc3cc(Cl)ccc32)c1 [PHA-563275]
8 | 2 (≈ 3.58 µM) |  | N#Cc1ccc(-c2ccc(NC(=O)c3cccc(S(=O)(=O)N4CCc5cc(Cl)ccc54)c3)c(C(=O)O)c2)cc1 [PHA-563276]
9 | 2 (≈ 3.62 µM) |  | Cc1csc(-c2ccc(NC(=O)c3cccc(S(=O)(=O)N4CCc5cc(Cl)ccc54)c3)c(C(=O)O)c2)c1 [PHA-563277]
10 | 2 (≈ 3.63 µM) |  | O=C(Nc1ccc(-c2ccc(F)cc2)cc1C(=O)O)c1cccc(S(=O)(=O)N2CCc3cc(Cl)ccc32)c1 [PHA-563278]
11 | 0.5 (≈ 0.832 µM) |  | O=C(Nc1ccc(-c2ccccc2C(F)(F)F)cc1C(=O)O)c1cccc(S(=O)(=O)N2CCc3cc(Cl)ccc32)c1 [PHA-563279]
12 | 1 (≈ 1.49 µM) |  | O=C(Nc1ccc(-c2cc(C(F)(F)F)cc(C(F)(F)F)c2)cc1C(=O)O)c1cccc(S(=O)(=O)N2CCc3cc(Cl)ccc32)c1 [PHA-563280]
13 | 1 (≈ 1.76 µM) |  | O=C(Nc1ccc(-c2ccc(F)cc2F)cc1C(=O)O)c1cccc(S(=O)(=O)N2CCc3cc(Cl)ccc32)c1 [PHA-563281]
14 | 1 (≈ 1.81 µM) |  | Cc1ccc(-c2ccc(NC(=O)c3cccc(S(=O)(=O)N4CCc5cc(Cl)ccc54)c3)c(C(=O)O)c2)s1 [PHA-563282]
15 | 16 (≈ 27.2 µM) |  | CC(C)(C)c1ccc(-c2ccc(NC(=O)c3cccc(S(=O)(=O)N4CCc5cc(Cl)ccc54)c3)c(C(=O)O)c2)cc1 [PHA-563283]
16 | 2 (≈ 3.33 µM) |  | O=C(Nc1ccc(-c2cccc(C(F)(F)F)c2)cc1C(=O)O)c1cccc(S(=O)(=O)N2CCc3cc(Cl)ccc32)c1 [PHA-563284]
17 | 2 (≈ 3.33 µM) |  | O=C(Nc1ccc(-c2ccc(C(F)(F)F)cc2)cc1C(=O)O)c1cccc(S(=O)(=O)N2CCc3cc(Cl)ccc32)c1 [PHA-563285]
18 | > 128 |  | O=C(Nc1ccc(-c2ccccn2)cc1C(=O)O)c1cccc(S(=O)(=O)N2CCc3cc(Cl)ccc32)c1 [PHA-563324]
19 | 0.5 (≈ 1.29 µM) |  | COc1ccc(Oc2cccc(C(=O)Nc3ccc(C#N)cc3C(=O)O)c2)cc1 [PHA-564215]
20 | 1 (≈ 2.48 µM) |  | N#Cc1ccc(NC(=O)c2cccc(Oc3cccc([N+](=O)[O-])c3)c2)c(C(=O)O)c1 [PHA-564218]
21 | 0.25 (≈ 0.605 µM) |  | N#Cc1ccc(NC(=O)c2cccc(S(=O)(=O)N3CCCCC3)c2)c(C(=O)O)c1 [PHA-564750]
22 |  | 0.5 | O=C(Nc1ccc(Br)cc1C(=O)O)c1cccc(C(O)c2ccccc2)c1 (centres unmarked) [PHA-566947]
23 | 1 (≈ 2.35 µM) |  | O=C(Nc1ccc(Br)cc1C(=O)O)c1cccc(C(O)c2ccccc2)c1 (centres unmarked) [PHA-566948]
24 | 1 (≈ 2.06 µM) |  | O=C(O)c1cc([N+](=O)[O-])ccc1/C=C/c1cccc(S(=O)(=O)N2CCc3cc(Cl)ccc32)c1 [PHA-568196]
25 | 16 (≈ 33 µM) |  | O=C(O)c1ccc([N+](=O)[O-])cc1/C=C\c1cccc(S(=O)(=O)N2CCc3cc(Cl)ccc32)c1 [PHA-568197]
26 | 2 (≈ 3.66 µM) |  | Cc1ccccc1-c1ccc(NC(=O)c2cccc(S(=O)(=O)N3CCc4cc(Cl)ccc43)c2)c(C(=O)O)c1 [PHA-568205]
27 | 2 (≈ 3.49 µM) |  | O=C(Nc1ccc(-c2ccc(Cl)s2)cc1C(=O)O)c1cccc(S(=O)(=O)N2CCc3cc(Cl)ccc32)c1 [PHA-568206]
28 | 16 (≈ 35.3 µM) |  | O=C(Nc1ccc(Br)cc1C(=O)O)c1ccc(S(=O)(=O)N2CCCC2)cc1 [PHA-568376]
29 | 2 (≈ 4.41 µM) |  | O=C(Nc1ccc(Br)cc1C(=O)O)c1cccc(S(=O)(=O)N2CCCC2)c1 [PHA-568378]
